IC50 data for 25 compounds are collected here from patent US11267824B2, “Inhibitors of indoleamine 2,3-dioxygenase and/or tryptophan 2,3-dioxygenase” (IDORSIA PHARMACEUTICALS LTD, priority 2017, dated 2022).

A word on the IC50: it is the point on the concentration scale where inhibition reaches its midpoint.

A value given as a limit tells only on which side of the number the result lay.

For assay [1], the target named is Recombinant human TDO comprising amino acids 19-407 (Homo sapiens (Human), UniProt P48775). The experiment in a line: TDO2 enzymatic assay (TDO inhibitory activity). Type of assay: biochemical. Conditions: 15 nM enzyme, 200 μM L-tryptophan, pH7, 30 min pre-incubation, NFK quantified by LCMS; mean values if measured multiple times; read-out: hTDO activity (IC50 in nM). The protocol:
2) Testing Compounds for TDO Inhibitory Activity in a TDO2 Enzymatic Assay:
Recombinant human TDO comprising amino acids 19-407 with a N-terminal hexahistidine tag expressed in E. coli and purified to homogeneity is incubated at a final concentration of 15 nM in assay buffer consisting of 75 mM phosphate buffer at pH7 supplemented with 100 μM ascorbic acid, 50 U/ml Catalase, 0.01% BSA, and 0.01% Tween 20 (protocol modified from Seegers et al, JBS 2014). Example compounds are serially diluted in DMSO, further diluted in phosphate buffer, and added to the reaction mixture at final concentrations ranging from 10 μM to 0.5 nM. The final DMSO concentration is 0.6%. Following a pre-incubation of 30 minutes at RT, the reaction is started by the addition of L-tryptophan at a final concentration of 200 μM in assay buffer. After 30 minutes of incubation at RT, 3 μL of the reaction mixture are transferred to a 384 deep well plate containing 25 μL of deionized water. 100 μl of 200 nM L-Tryptophan-(indole-d5) in cold 100% methanol are added followed by a 10 minutes centrifugation at 4,000 rpm at 4° C. An additional 75 μL of deionized water are then added and followed by a 10 minutes centrifugation at 4,000 rpm at 4° C. The product of the reaction N′-Formylkynurenine (NFK) is quantified by LCMS and normalized to the L-Tryptophan-(indole-d5) signal. Samples with 0.6% DMSO (0% effect) and a TDO/IDO inhibitor (100% effect) are used as control samples to set the parameters for the non-linear regression necessary for the determination of the half-maximal inhibitory concentration (IC50) for each compound. For each compound concentration the percentage of activity compared to 0% and 100% effect is calculated as average±STDEV (each concentration measured in duplicate). IC50 values and curves are generated with XLfit software (IDBS) using Dose-Response One Site model 203 (four parameter logistic curve model). When compounds are measured multiple times, mean values are given.

Assay [2] deals with Recombinant full-length human IDO1 (Homo sapiens (Human), UniProt P14902). Kind of assay: IDO1 enzymatic assay (IDO inhibitory activity). It is filed as biochemical. Conditions: 2 nM enzyme, 5 μM L-tryptophan, pH6.5, 30 min pre-incubation, NFK quantified by LCMS; mean values if measured multiple times; read-out: hIDO activity (IC50 in nM). The protocol: 1) Testing Compounds for IDO Inhibitory Activity in an IDO1 Enzymatic Assay:
Recombinant full-length human IDO1 with a N-terminal hexahistidine tag expressed in E. coli and purified to homogeneity is incubated at a final concentration of 2 nM in assay buffer consisting of 37.5 mM phosphate buffer at pH6.5 supplemented with 10 mM sodium L-ascorbate, 0.45 μM methylene blue, 50 U/ml catalase, 0.01% BSA, and 0.01% Tween 20 (protocol modified from Seegers et al, JBS 2014). Example compounds are serially diluted in DMSO, further diluted in phosphate buffer, and added to the enzyme at final concentrations ranging from 10 μM to 0.5 nM. The final DMSO concentration is 0.6%. Following a pre-incubation of 30 minutes at RT, the reaction is started by the addition of L-tryptophan at a final concentration of 5 μM in assay buffer. After 30 minutes of incubation at RT, 3 μL of the reaction mixture are transferred to a 384 deep well plate containing 25 μL of deionized water. 100 μl of 200 nM L-Tryptophan-(indole-d5) in cold 100% methanol are added followed by a 10 minutes centrifugation at 4,000 rpm at 4° C. An additional 75 μL of deionized water are then added and followed by a 10 minutes centrifugation at 4,000 rpm at 4° C. The product of the reaction N′-Formylkynurenine (NFK) is quantified by LCMS and normalized to the L-Tryptophan-(indole-d5) signal. Samples with 0.6% DMSO (0% effect) and a TDO/IDO inhibitor (100% effect) are used as control samples to set the parameters for the non-linear regression necessary for the determination of the half-maximal inhibitory concentration (IC50) for each compound. For each compound concentration the percentage of activity compared to 0% and 100% effect is calculated as average ±STDEV (each concentration measured in duplicate). IC50 values and curves are generated with XLfit software (IDBS) using Dose-Response One Site model 203 (four parameter logistic curve model). When compounds are measured multiple times, mean values are given.

Chain of Recombinant human TDO comprising amino acids 19-407 (P48775 19-406 limits assumed): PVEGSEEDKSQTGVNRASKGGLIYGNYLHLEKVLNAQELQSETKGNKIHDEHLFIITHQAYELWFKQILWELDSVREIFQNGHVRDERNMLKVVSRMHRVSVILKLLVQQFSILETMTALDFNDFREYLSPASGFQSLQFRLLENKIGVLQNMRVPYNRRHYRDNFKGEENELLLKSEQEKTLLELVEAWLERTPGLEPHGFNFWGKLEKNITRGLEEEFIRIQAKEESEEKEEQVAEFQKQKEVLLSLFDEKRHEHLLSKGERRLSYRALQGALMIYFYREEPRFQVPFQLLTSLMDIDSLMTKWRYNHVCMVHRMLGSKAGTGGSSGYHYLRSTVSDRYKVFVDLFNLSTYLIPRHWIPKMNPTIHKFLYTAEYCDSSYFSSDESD
Chain of Recombinant full-length human IDO1 (P14902 whole entry): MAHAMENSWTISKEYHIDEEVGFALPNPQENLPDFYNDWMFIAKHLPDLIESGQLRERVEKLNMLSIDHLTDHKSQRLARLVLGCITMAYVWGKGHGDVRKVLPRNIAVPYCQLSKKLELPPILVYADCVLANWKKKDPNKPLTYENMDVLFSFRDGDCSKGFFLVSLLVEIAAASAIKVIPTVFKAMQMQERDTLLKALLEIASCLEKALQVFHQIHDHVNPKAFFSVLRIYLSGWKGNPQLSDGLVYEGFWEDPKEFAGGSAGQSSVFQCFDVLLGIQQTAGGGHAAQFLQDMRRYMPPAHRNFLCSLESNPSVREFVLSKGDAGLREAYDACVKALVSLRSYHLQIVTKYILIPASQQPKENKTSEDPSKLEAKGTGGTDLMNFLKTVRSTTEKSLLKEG

Take `CC(C)C1CCC(C(O)c2c(C3CC3)sc3cncn23)CC1` (racemic) [Example 72, rac-(2-Cyclopropyl-imidazo[5,1-b]thiazol-3-yl)-(4-isopropyl-cyclohexyl)-methanol]: the values for the concentration for half-maximal inhibition (IC50) in assay [1] and in assay [2] were 1470 nM and 102 nM, respectively.

As for `OC(c1c(C2CC2)sc2cncn12)C1CCC(c2ccccc2)CC1` (racemic) [Example 73, rac-(2-Cyclopropyl-imidazo[5,1-b]thiazol-3-yl)-(4-phenyl-cyclohexyl)-methanol], the IC50 in assay [1] came out at 3110 nM; in assay [2], 43.7 nM.

Turning to `CC(C)(C)C1CCC(CC(O)c2c(C3CC3)sc3cncn23)CC1` (racemic) [Example 74, rac-2-(4-tert-Butyl-cyclohexyl)-1-(2-cyclopropyl-imidazo[5,1-b]thiazol-3-yl)-ethanol], the IC50 in assay [1] was determined as 4330 nM; in assay [2], 950 nM.

With `OC(c1c(C2CC2)sc2cncn12)C1CCC(C(F)(F)F)CC1` (racemic) [Example 81, rac-(2-Cyclopropyl-imidazo[5,1-b]thiazol-3-yl)-(4-trifluoromethyl-cyclohexyl)-methanol], the IC50 in assay [1] was found to be 772 nM; in assay [2] it was 43.3 nM.

Take `CC(C)C1CCC(CC(O)c2c(C3CC3)sc3cncn23)CC1` (racemic) [Example 85, rac-1-(2-Cyclopropyl-imidazo[5,1-b]thiazol-3-yl)-2-(4-isopropyl-cyclohexyl)-ethanol]: the IC50 came out at 2830 nM in assay [1] and 511 nM in assay [2].

For `CC(C)(C)C1CCC(C(O)c2c(C3CC3)sc3cncn23)CC1` (racemic) [Example 86, rac-(4-tert-Butyl-cyclohexyl)-(2-cyclopropyl-imidazo[5,1-b]thiazol-3-yl)-methanol], the figures for the IC50 in assay [1] and in assay [2] were 2780 nM and 511 nM, respectively.

Take `OC(CC1CCC(C2CCC2)CC1)c1c(C2CC2)sc2cncn12` (racemic) [Example 87, rac-2-(4-Cyclobutyl-cyclohexyl)-1-(2-cyclopropyl-imidazo[5,1-b]thiazol-3-yl)-ethanol]: the IC50 in assay [1] came out at 3100 nM; in assay [2], 820 nM.

Take `OC(c1c(-c2ccccc2)sc2cncn12)C1CCCCC1` (racemic) [Example 92, rac-Cyclohexyl-(2-phenyl-imidazo[5,1-b]thiazol-3-yl)-methanol]: the IC50 in assay [1] amounted to 246 nM; in assay [2] it was 382 nM.

In the case of `OC(CC1CCCCC1)c1c(-c2ccccc2)sc2cncn12` (racemic) [Example 93, rac-2-Cyclohexyl-1-(2-phenyl-imidazo[5,1-b]thiazol-3-yl)-ethanol], the IC50 in assay [1] came out at 496 nM; in assay [2], 296 nM.

As for `OC(c1c(-c2ccsc2)sc2cncn12)C1CCCCC1` (racemic) [Example 94, rac-Cyclohexyl-(2-thiophen-3-yl-imidazo[5,1-b]thiazol-3-yl)-methanol], the IC50 came out at 181 nM in assay [1] and 144 nM in assay [2].

On to `OC(CC1CCCCC1)c1c(-c2ccsc2)sc2cncn12` (racemic) [Example 95, rac-2-Cyclohexyl-1-(2-thiophen-3-yl-imidazo[5,1-b]thiazol-3-yl)-ethanol], for which the 50% inhibitory concentration (IC50) came out at 386 nM in assay [1] and 313 nM in assay [2].

For `CCc1sc2cncn2c1C(O)C1CCCCC1` (racemic) [Example 96, rac-Cyclohexyl-(2-ethyl-imidazo[5,1-b]thiazol-3-yl)-methanol], the concentration for half-maximal inhibition (IC50) amounted to 39.9 nM in assay [1] and 10.5 nM in assay [2].

Turning to `CC(C)Cc1sc2cncn2c1C(O)C1CCCCC1` (racemic) [Example 98, rac-Cyclohexyl-(2-isobutyl-imidazo[5,1-b]thiazol-3-yl)-methanol], the 50% inhibitory concentration (IC50) worked out at 583 nM in assay [1] and 435 nM in assay [2].

With `CC(C)Cc1sc2cncn2c1C(O)CC1CCCCC1` (racemic) [Example 99, rac-2-Cyclohexyl-1-(2-isobutyl-imidazo[5,1-b]thiazol-3-yl)-ethanol], the half-inhibitory concentration (IC50) in assay [1] came to 1070 nM; in assay [2] it was 837 nM.

Consider `CCc1sc2cncn2c1C(O)CC1CCCCC1` (racemic) [Example 100, rac-2-Cyclohexyl-1-(2-ethyl-imidazo[5,1-b]thiazol-3-yl)-ethanol], for which the IC50 in assay [1] turned out to be 299 nM; in assay [2], 6.63 nM.

As to `OC(c1c(C2CC2)sc2cncn12)C1CCC(C2CCC2)CC1` (racemic) [Example 103, rac-(4-Cyclobutyl-cyclohexyl)-(2-cyclopropyl-imidazo[5,1-b]thiazol-3-yl)-methanol], the 50% inhibitory concentration (IC50) in assay [1] is 1780 nM; in assay [2], 70.1 nM.

Turning to `CC1(C(O)c2c(C3CC3)sc3cncn23)CCCCC1` (racemic) [Example 105, rac-(2-Cyclopropyl-imidazo[5,1-b]thiazol-3-yl)-(1-methyl-cyclohexyl)-methanol], the half-maximal inhibitory concentration (IC50) in assay [1] was determined as 104 nM; in assay [2], 10.6 nM.

Consider `Cc1sc2cncn2c1C(O)C1CC(C)(C)C1` (racemic) [Example 109, rac-(3,3-Dimethyl-cyclobutyl)-(2-methyl-imidazo[5,1-b]thiazol-3-yl)-methanol], for which the results for the IC50 in assay [1] and in assay [2] were 190 nM and 13.6 nM, respectively.

For `CC1(C)CC(C(O)c2c(C(F)(F)F)sc3cncn23)C1` (racemic) [Example 110, rac-(3,3-Dimethyl-cyclobutyl)-(2-trifluoromethyl-imidazo[5,1-b]thiazol-3-yl)-methanol], the IC50 in assay [1] was determined as 912 nM; in assay [2], 9.81 nM.

For the compound `OC(CC1CCCC1)c1c(C(F)(F)F)sc2cncn12` (racemic) [Example 111, rac-2-Cyclopentyl-1-(2-trifluoromethyl-imidazo[5,1-b]thiazol-3-yl)-ethanol], the half-maximal inhibitory concentration (IC50) in assay [1] came to 2430 nM; in assay [2], 101 nM.

Regarding `Cc1sc2cncn2c1C(O)C1CCCC1` (racemic) [Example 113, rac-Cyclopentyl-(2-methyl-imidazo[5,1-b]thiazol-3-yl)-methanol], the 50% inhibitory concentration (IC50) came out at 206 nM in assay [1] and 149 nM in assay [2].

As for `CC1CCC(C(O)c2c(C(F)(F)F)sc3cncn23)CC1` (racemic) [Example 115, rac-(4-Methyl-cyclohexyl)-(2-trifluoromethyl-imidazo[5,1-b]thiazol-3-yl)-methanol], the 50% inhibitory concentration (IC50) in assay [1] worked out at 1960 nM; in assay [2] it was 84.1 nM.

For the compound `CC1(C)CCC(CC(O)c2c(C(F)(F)F)sc3cncn23)CC1` (racemic) [Example 118, rac-2-(4,4-Dimethyl-cyclohexyl)-1-(2-trifluoromethyl-imidazo[5,1-b]thiazol-3-yl)-ethanol], the IC50 was 7280 nM in assay [1] and 447 nM in assay [2].

As for `OC(c1c(-c2cccnc2)sc2cncn12)C1CCCCC1` (racemic) [Example 124, rac-Cyclohexyl-(2-pyridin-3-yl-imidazo[5,1-b]thiazol-3-yl)-methanol], the 50% inhibitory concentration (IC50) in assay [1] worked out at 881 nM; in assay [2] it was 342 nM.

Turning to `Cn1cc(-c2sc3cncn3c2C(O)C2CCCCC2)cn1` (racemic) [Example 125, rac-Cyclohexyl-[2-(1-methyl-1H-pyrazol-4-yl)-imidazo[5,1-b]thiazol-3-yl]-methanol], the half-inhibitory concentration (IC50) is more than 10200 nM in assay [1] and 209 nM in assay [2].
